Experimental data published in patent US10947233B2, “Crystals of azabicyclic compound” (TAIHO PHARMACEUTICAL CO., LTD., priority 2015, dated 2021).

How the values were obtained:
[1] = Blood concentration measurement test (oral administration to mice); format: in vivo, mice (Balb/cA); details: 50 mg/10 mL/kg; for AUC0-24 hr: mice (Balb/cA) under feeding conditions, Compound 1 in plasma, LC-MS/MS
Method: Respective solutions for administration (50 mg/10 mL/kg) of the Form I crystal and Form II crystal were produced. These solutions were administered orally to mice (Balb/cA) bred under feeding conditions at a volume of 10 mL/kg body weight using a sonde for oral administration. After the administration, the mice were returned to cages for mice to inspect their conditions. Water and feed were freely available for the mice in the cages. The mice were anesthetized with isoflurane 1, 2, 3, 4, 8 and 24 hours after the administration and 60 μL of blood was collected from their orbital sinuses using capillary blood collection tubes. The collected blood was cooled on ice and centrifuged to separate plasma.
AUCs0-24 hrwere calculated with a linear-log trapezoid method using Phoenix WinNonlin (v6.3.0), software from Pharsight, from the concentrations of Compound 1 in plasma samples measured with Multiple Reaction Monitoring method using LC-MS/MS.
Therefore, the Form II crystal according to the present invention is remarkably excellent in oral absorbability and useful as an oral pharmaceutical composition.

[2] = Solid stability test (accelerated test), related substances by HPLC; format: physicochemical
Method: The solid stability of the Form II crystal obtained in Example 1 after storage of 1, 3 and 6 months at 40° C.±2° C./75% RH±5% RH was measured under the following conditions. • Storage conditions: 40° C.±2° C./75% RH±5% RH • Measurement points: 1, 3 and 6 month • Storage amount: 6 g • Storage container: doubled plastic bags, banding bands+plastic drums • Preparation method of sample solution: 100 mg of the Form II crystal is accurately measured, a mixed solution of acetonitrile-water (4:1) is added to dissolve the crystal (sonicated to dissolve, if difficult to dissolve), and the solution is diluted in measuring cylinder to exact 200 mL total. 10 mL of this solution is accurately measured, and a mixed solution of acetonitrile-water (1:1) is added to exact 20 mL to be used as a sample solution.
HPLC was performed in the following conditions. • Column: general foundation Chemicals Evaluation and Research Institute, Japan L-column2 ODS • Particle size: 3 μm, Inner diameter: 4.6 mm, Length: 15 cm • Measurement wavelength: 220 nm • Mobile phase: Mobile phase A: 10 mmol/L phosphate buffer (pH6.9), • Mobile phase B: acetonitrile • Flow rate: about 1.0 mL/min
The concentration gradient is controlled by changing the mixing ratio of mobile phases A and B as follows, when feeding the liquid.
The amounts of related substances in the sample solutions were measured and evaluated by HPLC, of which result is shown in Table 3.
The related substances are defined as substances detected other than 3-ethyl-4-{3-isopropyl-4-(4-(1-methyl-1H-pyrazol-4-yl)-1H-imidazol-1-yl)-1H-pyrazolo[3,4-b]pyridin-1-yl}benzamide.

SMILES	AUC0-24 hr [1] [µM·h]	Related substances ([2]; storage 1 month at 40° C.±2° C./75% RH±5% RH)	Related substances ([2]; storage 3 months at 40° C.±2° C./75% RH±5% RH)	Related substances ([2]; storage 6 months at 40° C.±2° C./75% RH±5% RH)	AUC0-24 hr of the Form II crystal relative to the Form I crystal ([1]; mice (Balb/cA))
CCc1cc(C(N)=O)ccc1-n1nc(C(C)C)c2c(-n3cnc(-c4cnn(C)c4)c3)ccnc21 [Form I crystal, 3-ethyl-4-{3-isopropyl-4-(4-(1-methyl-1H-pyrazol-4-yl)-1H-imidazol-1-yl)-1H-pyrazolo[3,4-b]pyridin-1-yl}benzamide]	59.64	–	–	–	–
CCc1cc(C(N)=O)ccc1-n1nc(C(C)C)c2c(-n3cnc(-c4cnn(C)c4)c3)ccnc21 [Form II crystal, 3-ethyl-4-{3-isopropyl-4-(4-(1-methyl-1H-pyrazol-4-yl)-1H-imidazol-1-yl)-1H-pyrazolo[3,4-b]pyridin-1-yl}benzamide]	171.33	less than 0.1%	less than 0.1%	less than 0.1%	approximately 3 times
